In ChEMBL document CHEMBL1123338, “Synthesis and structure-activity relationship studies of a series of 5-aryl-4,6-dithianonanedioic acids and related compounds: a novel class of leukotriene antagonists” (J Med Chem, 1986):

Key:
[1] = target: Cysteinyl leukotriene receptor (Cavia porcellus); assay: Compound is evaluated for its ability to inhibit [3H]LTD4 binding to Cysteinyl leukotriene D4 receptor in guinea pig lung membranes
[2] = system: Cysteinyl leukotriene receptor (Cavia porcellus); assay: In vitro ability to antagonize a leukotriene D4 induced contraction of guinea pig trachea.

Row | SMILES | Ki [1] [nM] | -Log KB [2]
1 | CCCCCCCCCCCOc1ccccc1C(C)(SCCC(=O)O)SCCC(=O)O | > 20000 | 5.6
2 | CCCCCCCCCCCCc1ccccc1C1S[C@H](C(=O)O)[C@H](C(=O)O)S1 (stereo in doubt; 61) | 17578 | 
3 | CCCCCCCCCOc1ccccc1C(SCCC(=O)O)SCCC(=O)O | 4094 | 5.8
4 | CCCCCCCCCCCCC(SCCC(=O)O)SCCC(=O)O |  | 5.2
5 | O=C(O)CCSC(SCCC(=O)O)c1ccccc1CCCCCCCCCCCC(F)(F)F | 147 | 6.2
6 | CCCCCCCCCCC[C@@H]1CC(SCCC(=O)O)(SCCC(=O)O)c2ccccc21 | 2092 | 
7 | CCCCCCCCCCCCc1ccccc1C(SCCCC(=O)O)SCCCC(=O)O | 934 | 
8 | CCCCCCCCCCCCC#CC(SCCC(=O)O)SCCC(=O)O |  | 5.7
9 | CCCCCCCCCCC#CC(SCC(=O)O)SCC(=O)O |  | 5.3
10 | CCCCCCCCCCCCc1ccccc1C(CCCC(=O)O)CCCC(=O)O | 2337 | 
11 | O=C(O)CCSC(SCCC(=O)O)c1ccccc1OCCCCCCCCCO | > 20000 | 
12 | CCCCCCCCCCCOc1cccc(C(SCCC(=O)O)SCCC(=O)O)c1 | 78 | 6.1
13 | CCCCC/C=C/C/C=C/COc1ccccc1C(SCCC(=O)O)SCCC(=O)O | 1002 | 6
14 | CCCCCCCCCCCOc1ccc(O)cc1C(SCCC(=O)O)SCCC(=O)O | 156 | 6
15 | CCCCCCCCCCCOc1ccc(Br)cc1C(SCCC(=O)O)SCCC(=O)O | 624 | 6
16 | CCCCCCCCCC/C=C\c1ccccc1C(SCCC(=O)O)SCCC(=O)O | 1380 | 
17 | C#CCCCCCCCCCCc1ccccc1C(SCCC(=O)O)SCCC(=O)O | 141 | 6.8
18 | CCCCCCCCCCC#CC(SCCCC(=O)O)SCCCC(=O)O |  | 5.6
19 | CCCCc1ccc(CCCCc2ccccc2C(SCCC(=O)O)SCCC(=O)O)cc1 | 4228 | 5.6
20 | CCCCCCCCCCCSc1ccccc1C(SCCC(=O)O)SCCC(=O)O | 646 | 6
21 | CCCCCCCCC#CC(SCCC(=O)O)SCCC(=O)O |  | 5
22 | CCCCCCCCCCc1ccccc1C(SCCC(=O)O)SCCC(=O)O | 1180 | 6.5
23 | CCCCCCCCCCCCc1ccccc1C(SCC(=O)O)SCC(=O)O | 846 | 5.9
24 | CCCCCCCCCCCCCCc1ccccc1C(SCCC(=O)O)SCCC(=O)O | 1246 | 
25 | CCCCCCCCCCCOc1ccc(OC)cc1C(SCCC(=O)O)SCCC(=O)O | 579 | 5.9

Row | SMILES | Ki [1] [nM] | -Log KB [2]
26 | CCCCCCCCCCC#CC(SCCC(=O)O)SCCC(=O)O |  | 6.1
27 | O=C(O)CCSC(SCCC(=O)O)c1ccccc1OCCCCCCc1ccccc1 | 11526 | 5.3
28 | CCCCCCCCCCCCc1ccccc1C(SCCC(=O)O)[S+]([O-])CCC(=O)O (configuration not stated) | 423 | 5.8
29 | CCCCc1ccccc1C(SCCC(=O)O)SCCC(=O)O | > 20000 | 
30 | O=C(O)CCSC(SCCC(=O)O)c1ccccc1CCCCCCCCC1CCCCC1 | 1958 | 5.5
31 | CCCCCCCCCOc1cccc(C(SCCC(=O)O)SCCC(=O)O)c1 | 624 | 6
32 | CCCCCCCCCCCOc1ccccc1C(SCCC(=O)O)SCCC(=O)O | 287 | 6.4
33 | CCCCCCCCCCCOc1ccc(C(SCCC(=O)O)SCCC(=O)O)cc1 | > 20000 | 
34 | CCCCCCCCCCCCCOc1cccc(C(SCCC(=O)O)SCCC(=O)O)c1 | 530 | 
35 | CCCCCCCCc1ccccc1C(SCCC(=O)O)SCCC(=O)O | 5674 | 5.2
36 | CCCCCCCCCCCCc1ccccc1C(SCCC(=O)O)SCCC(=O)O | 445 | 6
37 | CCCCCCCCCCCCc1ccccc1C1S[C@@H](C(=O)O)[C@H](C(=O)O)S1 | 401 | 
38 | CCCCC/C=C/C/C=C/COc1cccc(C(SCCC(=O)O)SCCC(=O)O)c1 | 187 | 6.2
39 | O=C(O)CCSC(SCCC(=O)O)c1ccccc1OCCCC1CCCCC1 | 1009 | 
40 | CCCCCCCCCCC#Cc1ccccc1C(SCCC(=O)O)SCCC(=O)O | 2515 | 5.9
41 | CCCCCCCCCCCCCOc1ccc(C(SCCC(=O)O)SCCC(=O)O)cc1 | > 20000 | 
42 | CCCCCCCCCCC[C@@H]1CCC(SCCC(=O)O)(SCCC(=O)O)c2ccccc21 | > 20000 | 
43 | CCCCCCCCCCCOc1ccc([N+](=O)[O-])cc1C(SCCC(=O)O)SCCC(=O)O | 303 | 6.1
44 | CCCCCCCCCCc1ccc(C(SCCC(=O)O)SCCC(=O)O)cc1 | 7565 | 
45 | O=C(O)CCSC(SCCC(=O)O)c1cccc(CCCCCCCCc2ccccc2)c1 | 430 | 6
46 | CCCCCCCCCCCCc1cccc(C)c1C(SCCC(=O)O)SCCC(=O)O | 3672 | 
47 | O=C(O)CCSC(SCCC(=O)O)c1cc(C(F)(F)F)ccc1CCCCCCCCc1ccccc1 | 476 | 7
48 | CCCc1c(OCCCCCOc2ccccc2C(SCCC(=O)O)SCCC(=O)O)ccc(C(C)=O)c1O | 3149 | 6.6
49 | CCOCCOCCOCCOc1ccccc1C(SCCC(=O)O)SCCC(=O)O | > 20000 | 
50 | CCCCCCCCCC/C=C/c1ccccc1C(SCCC(=O)O)SCCC(=O)O | 491 | 5.8
